Here are results for four molecules from patent US20040028752A1, “Topical pharmaceutical composition comprising a cholinergic agent or a calcium channel blocker” (S.L.A. Pharma AG., priority 2002, published 2004).

Series [1] deals with resting anal sphincter pressure. The experiment in a line: Bethanechol dose ranging study in healthy volunteers. It is filed as in vivo, human. An excerpt:
Bethanechol cream at concentrations of 0.05%, 0.1%, 0.5% and 1% w/w bethanechol were made up in accordance with example 1. The compositions were studied following initial experimentation in an open way to determine a clinically effective dose range. […] Maximal effect was produced by application of 0.1% bethanechol and higher concentrations of the cream produced no additional effect. At 0.1% w/w bethanechol, the mean resting pressure was reduced from about 110 cm to about 85 cm H2O (about 25% decrease). A typical ‘one inch’ application of this cream from the tube is equivalent to 400 mcg of bethanechol.

In series [2] the test system is chronic anal fissures. Briefly: Open study of bethanechol cream in patients with chronic anal fissures. The conditions noted are these: 0.1% cream three times daily. It is filed as in vivo, human. An excerpt:
The 0.1% bethanechol cream of example 3 was applied to the anus three times daily for an eight week course to treat patients suffering from chronic anal fissures (in an uncontrolled, open, pilot study). To date, 6 patients have been treated and followed up for 3 to 5 weeks. Four patients have had complete resolution of symptoms, of whom 3 have complete and 1 partial healing of the fissure. In all of these 4 patients there has been a reduction of the maximum resting anal sphincter pressure to within normal limits. One patient discovered they were pregnant and treatment was discontinued. The last patient has had no relief and remains symptomatic after 4 weeks' follow up.

Series [3] concerns mean anal resting pressure. Briefly: Study of example 4 repeated using oral diltiazem.
For series [4], the system named is internal anal resting pressure. The note with it: given orally at 60 mg; cited from earlier work.
The subject of series [5] is chronic anal fissures. Briefly: Open study of diltiazem cream in patients with anal fissures. It is filed as in vivo, human. An excerpt:
2% diltiazem cream from example 2 was applied to the anus three times daily for 8 weeks to treat patients suffering from chronic anal fissures (in an uncontrolled, open, pilot study). To date, 7 patients were studied and followed up between 2 to 5 weeks. 5 patients have had complete resolution of symptoms, of whom 3 have complete and 2 partial healing of the fissure. In four of these 5 patients there has been a reduction of the maximum resting anal sphincter pressure to within normal limits. The last patient, though symptom free, continues to have a high anal resting pressure.
2 patients have only had two weeks of treatment and one is symptom free after this short period, whilst the other still has occasional pain. It is too early to comment on healing of fissures in these two patients.

For series [6], the system named is resting anal sphincter pressure. The experiment in a line: Diltiazem dose ranging study on healthy volunteers, eight channel water perfused manometer. The format is in vivo, human. An excerpt:
Concentrations of diltiazem cream used were 0.1%, 0.5%, 1%, 2%, 5% and 10%. […] The maximal effect, at which the mean resting anal pressure was lowered by 28% (P<0.0001), was produced by 2% w/w cream (See FIG. 1).

Series [7] relates to internal anal resting pressure. The note with it: topical use; cited from earlier work.
The subject of series [8] is maximum resting pressures in the anal canal. The note with it: after 1 hour, patients with anal fissures; cited from earlier work.
The mark [9] stands for this setting: among the four patients with complete resolution of symptoms.
[10] abbreviates: 2% cream three times daily, among the 5 patients with complete resolution of symptoms.

Where two headings read alike, the source gives them in different places.

With `CC(C[N+](C)(C)C)OC(N)=O` (centres unmarked) [bethanechol], the “decrease of mean resting pressure” value in series [1] (0.1% w/w bethanechol topical, healthy volunteers) is “about 25%”. Besides, the “mean resting pressure after application” value in series [1] (0.1% w/w bethanechol topical, healthy volunteers, reduced from about 110 cm) is reported as “about 85 cm H2O”. Also, in series [1] (topical 0.05%, 0.1%, 0.5% and 1% w/w), the “effect on resting anal sphincter pressure” value is “dose dependent reduction”. Further, the “effect of a single application sustained from” value in series [1] (topical bethanechol, healthy volunteers (FIG. 4: 0.1% w/w gel)) lay within 3 to 5 h. Further, the “concentration producing the maximal effect on resting anal sphincter pressure” value in series [1] (topical, 0.05%, 0.1%, 0.5% and 1% w/w tested, higher concentrations no additional effect) came to 0.1%. Further, in the series with chronic anal fissures [2] (6 patients treated, follow up 3 to 5 weeks), the “patients with complete resolution of symptoms” value is “Four”. Further, in the series on chronic anal fissures [2] (setting [9]), the “patients with complete healing of the fissure” value was 3 patients and the “patients with partial healing of the fissure” value is reported as 1 patients. For the same molecule, the “patients with reduction of the maximum resting anal sphincter pressure to within normal limits” value with chronic anal fissures [2] (of the 4 symptom-free patients) came to 4 patients.

As for `COc1ccc([C@@H]2Sc3ccccc3N(CCN(C)C)C(=O)[C@@H]2OC(C)=O)cc1` [diltiazem], the “effect on mean anal resting pressure” value in series [3] (60 mg oral once a day) is recorded as “no notable effect”. Besides, in series [3] (60 mg oral twice a day), the “patients who noticed postural dizziness” value is recorded as “two”. In addition, the “mean anal resting pressure reduced by” value in series [3] (60 mg oral twice a day, P=0.008) is 17%. Moreover, in series [4], the “effect on internal anal resting pressure” value is reported as “reduce internal anal resting pressure”. Further, in the series on chronic anal fissures [5] (2% cream three times daily, 7 patients studied, follow up 2 to 5 weeks), the “patients with complete resolution of symptoms” value worked out at 5 patients. For the same molecule, in the series with chronic anal fissures [5] (setting [10]), the “patients with complete healing of the fissure” value is 3 patients and the “patients with partial healing of the fissure” value is 2 patients. In addition, the “patients with reduction of the maximum resting anal sphincter pressure to within normal limits” value in the series on chronic anal fissures [5] (2% cream three times daily, of the 5 symptom-free patients) was “four”. The “patients symptom free after two weeks of treatment” value in the series with chronic anal fissures [5] (2% cream, of the 2 patients with only two weeks of treatment) is “one”. Moreover, the “mean resting anal pressure lowered by” value in series [6] (2% w/w cream, topical to anus, ten healthy volunteers, maximal effect, P<0.0001) worked out at 28%. Further, the “effect on resting anal sphincter pressure” value in series [6] (topical cream 0.1%, 0.5%, 1%, 2%, 5% and 10%) is “dose dependent reduction”. Further, the “effect of a single application sustained for” value in series [6] (topical diltiazem, healthy volunteers (FIG. 2: 1% w/w gel)) was in the range of 3 to 5 h.

Consider `O=[N+]([O-])OCC(CO[N+](=O)[O-])O[N+](=O)[O-]` [glyceryl trinitrate], for which the “effect on internal anal resting pressure” value in series [7] is “reduces the internal anal resting pressure”.

Turning to `O=C(NC1CCN(CCc2c[nH]c3ccccc23)CC1)c1ccccc1` [indoramin], the “reduction of maximum resting pressures in the anal canal” value in series [8] is 35.8%.
